{"source": "paper PMC7914897", "about": "“Cytotoxic Potential of a-Azepano- and 3-Amino-3,4-SeCo-Triterpenoids” (International Journal of Molecular Sciences, 2021)", "key": {"OVCAR-3 (Ovarian cancer)": {"system": "OVCAR-3 (Ovarian cancer)", "assay": "cells", "details": "Homo sapiens"}, "HCT-15 (Colon cancer)": {"system": "HCT-15 (Colon cancer)", "assay": "NCI-60 screen (SRB, 48 h)", "details": "Homo sapiens"}, "CCRF-CEM (Leukemia)": {"system": "CCRF-CEM (Leukemia)", "assay": "NCI-60 screen (SRB, 48 h)", "details": "Homo sapiens"}, "Leukemia subpanel": {"system": "Leukemia subpanel", "assay": "cells", "details": "Homo sapiens"}, "HT29 (Colon cancer)": {"system": "HT29 (Colon cancer)", "assay": "NCI-60 screen (SRB, 48 h)", "details": "Homo sapiens"}, "Prostate cancer subpanel": {"system": "Prostate cancer subpanel", "assay": "NCI-60 screen, subpanel", "details": "Homo sapiens"}, "IGROV1 (Ovarian cancer)": {"system": "IGROV1 (Ovarian cancer)", "assay": "NCI-60 screen (SRB, 48 h)", "details": "Homo sapiens"}, "UO-31 (Renal cancer)": {"system": "UO-31 (Renal cancer)", "assay": "NCI-60 screen (SRB, 48 h)", "details": "Homo sapiens"}, "HS 578T (Breast cancer)": {"system": "HS 578T (Breast cancer)", "assay": "NCI-60 screen (SRB, 48 h)", "details": "Homo sapiens"}, "Melanoma subpanel": {"system": "Melanoma subpanel", "assay": "NCI-60 screen, subpanel", "details": "Homo sapiens"}, "Breast cancer subpanel": {"system": "Breast cancer subpanel", "assay": "NCI-60 screen, subpanel", "details": "Homo sapiens"}, "[1]": {"system": "NCI-H23 (NSC lung cancer)", "assay": "NCI-60 screen (SRB, 48 h)", "details": "Homo sapiens"}, "SK-MEL-2 (Melanoma)": {"system": "SK-MEL-2 (Melanoma)", "assay": "NCI-60 screen (SRB, 48 h)", "details": "Homo sapiens"}, "LOX IMVI (Melanoma)": {"system": "LOX IMVI (Melanoma)", "assay": "NCI-60 screen (SRB, 48 h)", "type": "cell-based", "details": "Homo sapiens"}, "Colon Cancer subpanel": {"system": "Colon Cancer subpanel", "assay": "NCI-60 screen, subpanel", "details": "Homo sapiens"}, "RPMI-8226 (Leukemia)": {"system": "RPMI-8226 (Leukemia)", "assay": "NCI-60 screen (SRB, 48 h)", "details": "Homo sapiens"}, "BT-549 (Breast cancer)": {"system": "BT-549 (Breast cancer)", "assay": "NCI-60 screen (SRB, 48 h)", "type": "cell-based", "details": "Homo sapiens"}, "UACC-257 (Melanoma)": {"system": "UACC-257 (Melanoma)", "assay": "NCI-60 screen (SRB, 48 h)", "details": "Homo sapiens"}, "[2]": {"system": "MDA-MB-31/ATCC (Breast cancer)", "assay": "NCI-60 screen (SRB, 48 h)", "details": "Homo sapiens"}, "[3]": {"system": "A549/ATCC (NSC lung cancer)", "assay": "NCI-60 screen (SRB, 48 h)", "details": "Homo sapiens"}, "SN12C (Renal cancer)": {"system": "SN12C (Renal cancer)", "assay": "NCI-60 screen (SRB, 48 h)", "details": "Homo sapiens"}, "[4]": {"system": "NCI-H322M (NSC lung cancer)", "assay": "NCI-60 screen (SRB, 48 h)", "details": "Homo sapiens"}, "[5]": {"system": "NCI/ADR-RES (Ovarian cancer)", "assay": "NCI-60 screen (SRB, 48 h)", "details": "Homo sapiens"}, "DU-145 (Prostate cancer)": {"system": "DU-145 (Prostate cancer)", "assay": "NCI-60 screen (SRB, 48 h)", "details": "Homo sapiens"}, "[6]": {"system": "panel of approximately 60 cancer cell lines", "assay": "NCI-60 screen (SRB, 48 h), full panel"}, "SK-MEL-28 (Melanoma)": {"system": "SK-MEL-28 (Melanoma)", "assay": "NCI-60 screen (SRB, 48 h)", "details": "Homo sapiens"}}, "note": "Read-outs that look alike come from different tables or passages of the source."}
{"smiles": "C=C(C)[C@@H]1CC[C@]2(C(=O)N[C@H](CO)Cc3ccccc3)CC[C@]3(C)[C@H](CC[C@@H]4[C@@]5(C)CCCNC(C)(C)[C@@H]5CC[C@]43C)[C@@H]12", "note": "[Compound 11]", "values": [{"measurement": "GI50", "setting": "OVCAR-3 (Ovarian cancer); OVCAR-3", "value": 460, "unit": "nM"}, {"measurement": "IC (TGI)", "setting": "OVCAR-3 (Ovarian cancer); OVCAR-3, 48 h, read-out: TGI", "value": 1600, "unit": "nM"}, {"measurement": "GI50", "setting": "HCT-15 (Colon cancer); HCT-15", "value": 970, "unit": "nM"}, {"measurement": "IC (TGI)", "setting": "HCT-15 (Colon cancer); HCT-15, 48 h, read-out: TGI", "value": 2320, "unit": "nM"}, {"measurement": "GI50", "setting": "CCRF-CEM (Leukemia)", "value": 250, "unit": "nM"}, {"measurement": "IC (TGI)", "setting": "CCRF-CEM (Leukemia); 48 h, read-out: TGI", "value": 740, "unit": "nM"}, {"measurement": "IC (TGI)", "setting": "Leukemia subpanel; 48 h, read-out: TGI MG_MID", "value": 1030, "unit": "nM"}, {"measurement": "GI50", "setting": "Leukemia subpanel; read-out: GI50 MG_MID", "value": 340, "unit": "nM"}, {"measurement": "GI50", "setting": "HT29 (Colon cancer); HT-29", "value": 240, "unit": "nM"}, {"measurement": "IC (TGI)", "setting": "HT29 (Colon cancer); HT-29, 48 h, read-out: TGI", "value": 540, "unit": "nM"}, {"measurement": "CC50", "setting": "HT29 (Colon cancer); HT-29, read-out: LC50", "value": 1750, "unit": "nM"}, {"measurement": "IC (TGI)", "setting": "Prostate cancer subpanel; 48 h, read-out: TGI MG_MID", "value": 2750, "unit": "nM"}, {"measurement": "GI50", "setting": "Prostate cancer subpanel; read-out: GI50 MG_MID", "value": 1320, "unit": "nM"}, {"measurement": "GI50", "setting": "IGROV1 (Ovarian cancer); IGROV-1", "value": 1830, "unit": "nM"}, {"measurement": "IC (TGI)", "setting": "IGROV1 (Ovarian cancer); IGROV-1, 48 h, read-out: TGI", "value": 3610, "unit": "nM"}, {"measurement": "GI50", "setting": "UO-31 (Renal cancer); UO-31", "value": 1500, "unit": "nM"}, {"measurement": "IC (TGI)", "setting": "UO-31 (Renal cancer); UO-31, 48 h, read-out: TGI", "value": 2960, "unit": "nM"}, {"measurement": "GI50", "setting": "HS 578T (Breast cancer)", "value": 1610, "unit": "nM"}, {"measurement": "IC (TGI)", "setting": "HS 578T (Breast cancer); 48 h, read-out: TGI", "value": 3780, "unit": "nM"}, {"measurement": "IC (TGI)", "setting": "Melanoma subpanel; 48 h, read-out: TGI MG_MID", "value": 2870, "unit": "nM"}, {"measurement": "GI50", "setting": "Melanoma subpanel; read-out: GI50 MG_MID", "value": 1420, "unit": "nM"}, {"measurement": "CC50", "setting": "Melanoma subpanel; read-out: LC50 MG_MID", "value": 6070, "unit": "nM"}, {"measurement": "IC (TGI)", "setting": "Breast cancer subpanel; 48 h, read-out: TGI MG_MID", "value": 3160, "unit": "nM"}, {"measurement": "GI50", "setting": "Breast cancer subpanel; read-out: GI50 MG_MID", "value": 1410, "unit": "nM"}, {"measurement": "CC50", "setting": "Breast cancer subpanel; read-out: LC50 MG_MID", "value": 6010, "unit": "nM"}, {"measurement": "GI50", "setting": "[1]; NCI-H23", "value": 1600, "unit": "nM"}, {"measurement": "IC (TGI)", "setting": "[1]; NCI-H23, 48 h, read-out: TGI", "value": 3170, "unit": "nM"}, {"measurement": "GI50", "setting": "SK-MEL-2 (Melanoma); SK-MEL-2", "value": 1720, "unit": "nM"}, {"measurement": "IC (TGI)", "setting": "SK-MEL-2 (Melanoma); SK-MEL-2, 48 h, read-out: TGI", "value": 3180, "unit": "nM"}, {"measurement": "CC50", "setting": "SK-MEL-2 (Melanoma); SK-MEL-2, read-out: LC50", "value": 5870, "unit": "nM"}, {"measurement": "IC (TGI)", "setting": "LOX IMVI (Melanoma); 48 h", "value": 2420, "unit": "nM"}, {"measurement": "GI50", "setting": "LOX IMVI (Melanoma); read-out: GI50", "value": 1070, "unit": "nM"}, {"measurement": "IC (TGI)", "setting": "Colon Cancer subpanel; 48 h, read-out: TGI MG_MID", "value": 2180, "unit": "nM"}, {"measurement": "GI50", "setting": "Colon Cancer subpanel; read-out: GI50 MG_MID", "value": 960, "unit": "nM"}, {"measurement": "CC50", "setting": "Colon Cancer subpanel; read-out: LC50 MG_MID", "value": 3760, "unit": "nM"}, {"measurement": "GI50", "setting": "RPMI-8226 (Leukemia); RPMI-8226", "value": 240, "unit": "nM"}, {"measurement": "IC (TGI)", "setting": "RPMI-8226 (Leukemia); RPMI-8226, 48 h, read-out: TGI", "value": 630, "unit": "nM"}, {"measurement": "GI50", "setting": "BT-549 (Breast cancer); BT-549", "value": 1690, "unit": "nM"}, {"measurement": "IC (TGI)", "setting": "BT-549 (Breast cancer); BT-549, 48 h", "value": 3320, "unit": "nM"}, {"measurement": "GI50", "setting": "UACC-257 (Melanoma); UACC-257", "value": 1780, "unit": "nM"}, {"measurement": "IC (TGI)", "setting": "UACC-257 (Melanoma); UACC-257, 48 h, read-out: TGI", "value": 3340, "unit": "nM"}, {"measurement": "CC50", "setting": "UACC-257 (Melanoma); UACC-257, read-out: LC50", "value": 6250, "unit": "nM"}, {"measurement": "GI50", "setting": "[2]", "value": 1340, "unit": "nM"}, {"measurement": "IC (TGI)", "setting": "[2]; 48 h, read-out: TGI", "value": 2770, "unit": "nM"}, {"measurement": "GI50", "setting": "[3]; A549", "value": 960, "unit": "nM"}, {"measurement": "IC (TGI)", "setting": "[3]; A549, 48 h, read-out: TGI", "value": 2450, "unit": "nM"}, {"measurement": "GI50", "setting": "SN12C (Renal cancer)", "value": 1810, "unit": "nM"}, {"measurement": "IC (TGI)", "setting": "SN12C (Renal cancer); 48 h, read-out: TGI", "value": 3550, "unit": "nM"}, {"measurement": "GI50", "setting": "[4]", "value": 1550, "unit": "nM"}, {"measurement": "IC (TGI)", "setting": "[4]; 48 h, read-out: TGI", "value": 2790, "unit": "nM"}, {"measurement": "GI50", "setting": "[5]", "value": 1350, "unit": "nM"}, {"measurement": "IC (TGI)", "setting": "[5]; 48 h, read-out: TGI", "value": 3010, "unit": "nM"}, {"measurement": "GI50", "setting": "DU-145 (Prostate cancer); DU-145", "value": 1480, "unit": "nM"}, {"measurement": "IC (TGI)", "setting": "DU-145 (Prostate cancer); DU-145, 48 h, read-out: TGI", "value": 2870, "unit": "nM"}, {"measurement": "number of cancer cell lines the compound was active against", "setting": "[6]; 1 dose 10 µM", "value": "effective against the all NCI-60 cancer cell line panel"}, {"measurement": "activity at 10 µM", "setting": "[6]; Homo sapiens, 48 h, read-out: Mean Growth, %", "value": -83.1, "unit": "%"}, {"measurement": "activity at 10 µM", "setting": "[6]; Homo sapiens, 48 h, read-out: Range of Growth, %", "value": "-97.9 to -46.7", "unit": "%"}, {"measurement": "IC (TGI)", "setting": "[6]; Homo sapiens, 48 h, read-out: TGI MG_MID60, average over all cell lines", "value": 2640, "unit": "nM"}, {"measurement": "GI50", "setting": "[6]; Homo sapiens, read-out: GI50 MG_MID60", "value": 1290, "unit": "nM"}, {"measurement": "GI50", "setting": "[6]; Homo sapiens, read-out: GI50 against all human tumor cell lines", "value": "< 3000", "unit": "nM"}, {"measurement": "GI50", "setting": "[6]; Homo sapiens, read-out: GI50 against the most sensitive cell lines", "value": "200 to 940", "unit": "nM"}, {"measurement": "CC50", "setting": "[6]; Homo sapiens, read-out: LC50 MG_MID60, average over all cell lines", "value": 5620, "unit": "nM"}, {"measurement": "GI50", "setting": "SK-MEL-28 (Melanoma); SK-MEL-28", "value": 1550, "unit": "nM"}, {"measurement": "IC (TGI)", "setting": "SK-MEL-28 (Melanoma); SK-MEL-28, 48 h, read-out: TGI", "value": 3030, "unit": "nM"}]}
